Data: patent EP0603240B1, “SAFENING HERBICIDAL PYRAZOLYLSULFONYLUREAS” (priority 1991, dated 1993)
Structures can show the parent of a compound that is named as a salt. Where two headings read alike, the source gives them in different places.

Columns and labels:
corn [1] = assay: Example 6, Procedure II: Herbicide No. 1 + alachlor (No. 7) with antidotes; assay type: in vivo; conditions: Herbicide No.7 4.48 kg/ha alone
Method: (§1) Containers were filled and compacted with a fumigated silt loam top soil to a depth of about 1.3 cm from the top of the container. A first container was designated as an untreated control, a second container was designated as a herbicide control, and a third container was designated as a herbicide + antidote test container. Each of the containers was seeded with a crop species. A measured amount of herbicide dispersed or dissolved in acetone was applied to a measured quantity of soil. To this same quantity of soil treated with herbicide, there was added a measured amount of antidote dispersed or dissolved in acetone. The quantity of soil treated with the herbicide and antidote was thoroughly mixed to incorporate the herbicide and antidote in the soil uniformly. The seed bed in the third container of soil was covered with the soil treated with the herbicide and antidote and the container was leveled. For each test series, the seed beds of the first and second containers were likewise covered by soil layers. the cover layer of the first container was not treated with herbicide or antidote.
(§2) The containers were then placed on a bench in a greenhouse and sub-irrigated as required for the duration of the test. […] Plant response is measured in terms of percent injury. Antidote efficacy is indicated as the difference in plant injury by the herbicide(s) without the antidote and with the antidote.
(§3) This procedure is the same as Procedure I, but modified in the manner that after incorporation of the chemicals (herbicide and antidote) the containers with the covered seedbed were treated with an initial overhead irrigation equivalent to 0.6 cm rainfall, then subsequently sub-irrigated as required on greenhouse benches.
(§4) This example was designed to investigate the antidotal efficacy of a plurality of antidotal compounds against a composition comprising Herbicide No. 1 in combination with Herbicide No. 7 (alachlor). The antidotal compounds used herein were Nos. 1, 2, 7, 13 and 15.
(§5) In this example, Procedure II described above was followed. The data from the tests in this example is shown in Table 6 and represents averages of duplicate replications.

[2] = system: barnyardgrass (Echinochloa crusgalli); assay: as above; assay type: in vivo; conditions: Herbicide No.7 4.48 kg/ha alone
Method: as §1, §2, §3
(§6) In the series of greenhouse tests described below, for routine screening purposes the herbicide/antidote compositions were tested in crop/weed combinations involving corn as the crop and either or both of the weeds barnyardgrass (Echinochloa crusgalli), a monocotyledonous weed, and velvetleaf (Abutilon theophrasti), a dicotyledonous weed. In the tables below, these weeds are indicated by the symbols "BYG" and "VL", respectively.
as §4, §5

[3] = system: velvetleaf (Abutilon theophrasti); assay: as above; assay type: in vivo; conditions: Herbicide No.7 4.48 kg/ha alone
Method: as §1, §2, §3, §6, §4, §5

corn [4] = assay: Example 12, Procedure II: Herbicide No. 1 + acetochlor (No. 6) with thirteen antidotes; assay type: in vivo; conditions: Herbicide No. 6 2.24 kg/ha, without an antidote
Method: as §1, §2, §3
This example was designed to investigate the efficacy of thirteen different antidotes from different classes of chemistry as safeners against compositions of Herbicide No. 1 and acetochlor (Herbicide No. 6) as co-herbicide. Acetochlor is the active ingredient in the commercial herbicides GUARDIAN® and WENNER®.
The test procedure used in this example was Procedure II described above.

corn [5] = assay: Example 8, Procedure II: Herbicide No. 1 + butachlor (No. 9) with antidotes; assay type: in vivo; conditions: Herbicide No.9 2.24 kg/ha alone
Method: as §1, §2, §3
(§7) In this test, the efficacy of the same five antidotes used in Examples 6 and 7 was investigated in compositions comprising Herbicide No. 1 and as a co-herbicide, butachlor (Herbicide No. 9), active ingredient in MACHETE® herbicide, a leading commercial rice herbicide. The test procedure used in this example was the same as that in Examples 6 and 7.

[6] = system: barnyardgrass (Echinochloa crusgalli); assay: as above; assay type: in vivo; conditions: Herbicide No.9 2.24 kg/ha alone
Method: as §1, §2, §3, §6, §7

[7] = system: velvetleaf (Abutilon theophrasti); assay: as above; assay type: in vivo; conditions: Herbicide No.9 2.24 kg/ha alone
Method: as §1, §2, §3, §6, §7

corn [8] = assay: Example 20, Procedure II: Herbicide No. 1 + EPTC or ERADICANE EXTRA with Antidote Nos. 5 and 15; assay type: in vivo
Method: as §1, §2, §3
(§8) This example describes experiments designed to test two generally efficacious antidotal compounds, i.e., Antidote Nos. 5 and 15, against the herbicidal action of the sulfonylurea compound, Herbicide No. 1, and the commercial herbicides EPTC (Herbicide No. 4) and ERADICANE® EXTRA (EPTC + R-29148, Antidote No. 5). Procedure II above was used in conducting these experiments. Formulations of EPTC and ERADICANE EXTRA were applied onto soil cover layers (to be applied over seed beds), followed by sequential pipetting of Herbicide No. 1 and Antidote No. 15. The soil was mixed to homogeneity and spread over the seed beds followed by 0.6 cm of overhead irrigation.

[9] = system: velvetleaf (Abutilon theophrasti); assay: as above; assay type: in vivo
Method: as §1, §2, §3, §6, §8

corn [10] = assay: Example 7, Procedure II: Herbicide No. 1 + metolachlor (No. 12) with antidotes; assay type: in vivo; conditions: Herbicide No.12 3.36 kg/ha alone
Method: as §1, §2, §3, §5
(§9) The tests in this example followed the same procedure and antidotes used in Example 6. However, Herbicide No. 12 (metolachlor) was used as the co-herbicide with Herbicide No. 1.

[11] = system: barnyardgrass (Echinochloa crusgalli); assay: as above; assay type: in vivo; conditions: Herbicide No.12 3.36 kg/ha alone
Method: as §1, §2, §3, §6, §5, §9

[12] = system: velvetleaf (Abutilon theophrasti); assay: as above; assay type: in vivo; conditions: Herbicide No.12 3.36 kg/ha alone
Method: as §1, §2, §3, §6, §5, §9

corn [13] = assay: Example 25, greenhouse preemergence test: Antidote Nos. 1 and 2 against Herbicide Nos. 1-3; assay type: in vivo, Corn (Pioneer 3424 variety); conditions: no antidote
Method: The chemicals were tested in both preemergence and post-emergence modes of application. The herbicides were prepared and applied as wettable powders; dichlormid was applied as an emulsifiable concentrate, while the naphthalic anhydride was applied as a coating on the corn seed prior to planting.
Test data from the preemergence tests are shown in Table 25A and from the post-emergence tests in Table 25B. In the tables, the concentration of chemicals is shown in terms of active ingredient in grams per hectare (G/ha); concentrations of the naphthalic anhydride were not measured per se, but were present as in conventional, normally-coated applications. Corn injury is shown in terms of percent inhibition of growth.

corn [14] = assay: Example 24, Procedure II: Herbicide No. 1 + co-herbicides Nos. 4, 6, 7, 12 with Antidote Nos. 15 and 17-21; assay type: in vivo; conditions: antidote 2.24 kg/ha; highest test rate (0.56 kg/ha) of Herbicide No. 1 + co-herbicide
Method: as §1, §2, §3
In other greenhouse tests, using Procedure II described above, the safening efficacy of Antidote Nos. 15 and 17-21 was evaluated against Herbicide No. 1 in corn in the presence of Giant foxtail (Setaria fabergi) and Velvetleaf (Abutilon theophrasti) as representative annual monocotyledonous and dicotyledonous weeds, respectively.
Test results are shown in Tables 23A and 23B wherein the indicated plant inhibition represents the average of duplicate replications, with observations being made thirteen (13) days after application of the chemicals. Giant foxtail and Velvetleaf are represented by the symbols "GFT" and "VL", respectively. The data in Table 23A show the test results using the antidotes at 2.24 kg/ha, whereas in Table 23B, the antidotal rate was reduced to 0.56 kg/ha.
The tests described in Example 23 were duplicated, but in this example a variety of co-herbicides were included to ascertain the efficacy of the antidotes against combinations of Herbicide No. 1 and Herbicides Nos. 4, 6, 7 and 12 as co-herbicides. Test results are shown in Table 24, wherein the antidote application rate was 2.24 kg/ha.

corn [15] = assay: Example 3, Procedure I: antidotes against Herbicide No. 1; assay type: in vivo
Method: as §1, §2
(§10) This example details the results of tests with Antidote Nos. 12, 15 and 16 to safen Herbicide No. 1 over application rates ranging from 4.48 kg/ha down to 0.56 kg/ha, in corn in the presence of barnyardgrass. Procedure I described above was used in these tests.

[16] = system: barnyardgrass (Echinochloa crusgalli); assay: as above; assay type: in vivo
Method: as §1, §2, §6, §10

[17] = Herbicide No. 4 2.24 kg/ha alone
[18] = Herbicide No. 4 4.48 kg/ha alone
[19] = Herbicide No. 4 6.72 kg/ha alone
[20] = Herb. No. 1 0.56 kg/ha + antidote 0.56 kg/ha
[21] = Herb. No. 1 0.56 kg/ha + antidote 2.24 kg/ha
[22] = Herb. No. 1 0.56 kg/ha + antidote 8.96 kg/ha
[23] = Herb. No. 1 1.12 kg/ha + antidote 0.56 kg/ha
[24] = Herb. No. 1 1.12 kg/ha + antidote 2.24 kg/ha
[25] = Herb. No. 1 1.12 kg/ha + antidote 8.96 kg/ha
[26] = Herb. No. 1 2.24 kg/ha + antidote 0.56 kg/ha
[27] = Herb. No. 1 2.24 kg/ha + antidote 2.24 kg/ha
[28] = Herb. No. 1 2.24 kg/ha + antidote 8.96 kg/ha
[29] = Herb. No. 1 4.48 kg/ha + antidote 0.56 kg/ha
[30] = Herb. No. 1 4.48 kg/ha + antidote 2.24 kg/ha
[31] = Herb. No. 1 4.48 kg/ha + antidote 8.96 kg/ha
[32] = antidote 8.96 kg/ha alone, no herbicide

CCc1cccc(CC)c1N(COC)C(=O)CCl [Herbicide No. 7, 2-Chloro-2',6'-diethyl-N-(methoxymethyl)acetanilide, reference compound]
% Injury Corn (corn [1]): 10% | % Injury BYG [2]: 100% | % Injury VL [3]: 25%

CCOCN(C(=O)CCl)c1c(C)cccc1CC [Herbicide No. 6, 2-Chloro-N-(ethoxymethyl)-6'-ethyl-o-acetoluidide, reference compound]
injury to corn (corn [4]): 25%

CCCCOCN(C(=O)CCl)c1c(CC)cccc1CC [Herbicide No. 9, 2-Chloro-2',6'-diethyl-N-(butoxymethyl)acetanilide, reference compound]
% Injury Corn (corn [5]): 5% | % Injury BYG [6]: 99% | % Injury VL [7]: 25%

CCCN(CCC)C(=O)SCC [No. 4]
% Injury Corn (corn [8]; [17]): 0% | % Injury Corn (corn [8]; [18]): 0% | % Injury Corn (corn [8]; [19]): 10% | % Injury VL [9, 17]: 0% | % Injury VL [9, 18]: 0% | % Injury VL [9, 19]: 18%

CCc1cccc(C)c1N(C(=O)CCl)C(C)COC (stereo not shown) [Herbicide No. 12, 2-Chloro-N-(2-methoxy-1-methylethyl)-6'-ethyl-o-acetotoluidide, reference compound]
% Injury Corn (corn [10]): 0% | % Injury BYG [11]: 100% | % Injury VL [12]: 20%

CCOC(=O)c1cnn(C)c1S(=O)(=O)NC(=O)Nc1nc(OC)cc(OC)n1 [Herbicide No. 3, N-[(4,6-dimethoxypyrimidin-2-yl)aminocarbonyl]-4-ethoxycarbonyl-1-methylpyrazole-5-sulfonamide]
inhibition at 0.07 g/ha (corn [13]; Zea mays, pre-emergence, Preemergence, herbicide alone 0.07 G/ha): 19.1% | inhibition at 0.25 g/ha (corn [13]; Zea mays, pre-emergence, Preemergence, herbicide alone 0.25 G/ha, read-out: % Inhibition Corn): 80.9% | inhibition at 0.74 g/ha (corn [13]; Zea mays, pre-emergence, Preemergence, herbicide alone 0.74 G/ha): 80.9% | inhibition at 0.25 g/ha (corn [13]; Zea mays, pre-emergence, preemergence, Herbicide No. 3 0.25 G/ha, read-out: corn injury, percent inhibition of growth): 80.9%

CC1COc2ccccc2N1C(=O)C(Cl)Cl (stereo not shown) [Antidote No. 17, 4-(Dichloroacetyl)-3,4-dihydro-3-methyl-2H-1,4-benzoxazine]
safening of corn, assessment in words (corn [14]): failed to safen

O=C(O)COC(c1ccccc1)c1ccccc1 [Antidote No. 18, Acetic acid, (diphenylmethoxy)- sodium salt, hemihydrate]
safening of corn, assessment in words (corn [14]): failed to safen

N-[(4,6-dimethoxypyridin-2-yl)aminocarbonyl]-3-chloro-4-ethoxycarbonyl-1-methylpyrazole-5-sulfonamide [Herbicide No. 2]
% Inhibition Corn (corn [13]; Preemergence, herbicide alone 0.25 G/ha): 21.7% | % Inhibition Corn (corn [13]; Preemergence, herbicide alone 0.74 G/ha): 36.4% | % Inhibition Corn (corn [13]; Preemergence, herbicide alone 2.5 G/ha): 42.7%

CC1(C)OC(c2cccs2)CN1C(=O)C(Cl)Cl (stereo not shown) [compound 11]
% Injury Corn (corn [15]; [20]): 15% | % Injury Corn (corn [15]; [21]): 0% | % Injury Corn (corn [15]; [22]): 0% | % Injury Corn (corn [15]; [23]): 5% | % Injury Corn (corn [15]; [24]): 0% | % Injury Corn (corn [15]; [25]): 0% | % Injury Corn (corn [15]; [26]): 30% | % Injury Corn (corn [15]; [27]): 0% | % Injury Corn (corn [15]; [28]): 0% | % Injury Corn (corn [15]; [29]): 50% | % Injury Corn (corn [15]; [30]): 30% | % Injury Corn (corn [15]; [31]): 5% | % Injury Corn (corn [15]; [32]): 15% | % Injury BYG [16, 20]: 70% | % Injury BYG [16, 21]: 20% | % Injury BYG [16, 22]: 0% | % Injury BYG [16, 23]: 80% | % Injury BYG [16, 24]: 15% | % Injury BYG [16, 25]: 0% | % Injury BYG [16, 26]: 75% | % Injury BYG [16, 27]: 30% | % Injury BYG [16, 28]: 0% | % Injury BYG [16, 29]: 80% | % Injury BYG [16, 30]: 80% | % Injury BYG [16, 31]: 50% | % Injury BYG [16, 32]: 0%

COC(=O)COC(c1ccccc1)c1ccccc1 [Antidote No. 20, Acetic acid, (diphenylmethoxy)-, methyl ester]
safening of corn, assessment in words (corn [14]): failed to safen
